Patent EP1285918A1, “C7 Ester substituted taxanes as antitumor agents” (Florida State University Research Foundation, Inc., priority 2001, dated 2003)
Like-named read-outs stand apart in the source and are kept apart here.

Legend:
[1] = tested on: HCT116 human colon carcinoma xenograft; settings: for long term survivors at the end of the experiment: HCT116, i.v. and oral groups together (out of thirty), Day 60; for Survivors / Partial Responses / Stable Disease / Toxic Deaths / Complete Responses: 10 mice/group, study end Day 60
Excerpt: Six groups consisting of ten mice in each group were made up of female Nu/Nu mice (8-9 weeks of age; implanted with 1 mm^3 HCT116 human […] carcinoma fragments in the flank). Another six groups consisting of ten mice in each group were made up of male Nu/Nu mice (6-7 weeks of age; implanted with 1 mm^3 HCT116 human […] carcinoma fragments in the flank). […] The study was terminated on Day 60.
The results are summarized in Table 19 for the female mice and Table 20 for the male mice. Included are mean days of survival (MDS), number of toxic deaths, number of survivors, number of complete or partial responses, and number with stable disease. The mean days of survival is the number of days after which an […] neoplasm reached a size of 1.5 g and the animal was euthanized. A complete response is obtained if the tumor is not palpable at the end of the study. A partial response is obtained if the tumor shrinks to a size smaller than its size on Day 1 of the study. […]

[2] = tested on: SKMES human lung cancer xenograft; settings: for Survivors / Complete Responses / Partial Responses / Stable Disease / Toxic Deaths / MDS (n) / % Total Response: 6 mice/group, study end Day 62; for 62-day survivors: 6 mice; for MDS (n): days until tumor reached 2.0 g; for MDS: 2.0 g cut-off
Method: Female Nu/Nu mice (6-8 weeks of age; implanted with 1 mm^3 SKMES lung carcinoma fragments in the flank) were sorted into treatment groups of six mice each. […] Treatment was administered as a single bolus on Day 1, and the study was terminated on Day 62.
The mean days of survival is the number of days after which a SKMES neoplasm reached a size of 2.0 g and the animal was euthanized. A complete response is obtained if the tumor is not palpable at the end of the study. A partial response is obtained if the tumor shrinks to a size smaller than its size on Day 1 of the study.

HCT116 = assay: In Vitro cytotoxicity measured by the cell colony formation assay; assay type: cell-based; settings: Homo sapiens, HCT-116; 72 h drug incubation, colonies counted after 7 days; concentration producing 50% inhibition of colony formation; read-out: IN VITRO ID 50 (nm) HCT116
[3] = female mice, 104 mg/kg i.v. in 5% ethanol and 95% Liposyn II (Group 4)
[4] = female mice, 104 mg/kg i.v. in 5% ethanol and 95% Liposyn III (Group 5)
[5] = female mice, 104 mg/kg oral in 5% ethanol, 5% Cremophor and 90% isotonic saline (Group 6)
[6] = male mice, 73 mg/kg i.v. in 5% ethanol and 95% Liposyn II (Group 4)
[7] = male mice, 73 mg/kg i.v. in 5% ethanol and 95% Liposyn III (Group 5)
[8] = male mice, 73 mg/kg oral in 5% ethanol, 5% Cremophor and 90% isotonic saline (Group 6)
[9] = 5.2 mg/kg single IV bolus Day 1
[10] = 5.2 mg/kg single oral bolus Day 1
[11] = 10.4 mg/kg single IV bolus Day 1
[12] = 10.4 mg/kg single oral bolus Day 1
[13] = 20.8 mg/kg single IV bolus Day 1
[14] = 20.8 mg/kg single oral bolus Day 1
[15] = 42 mg/kg single oral bolus Day 1
[16] = 73 mg/kg single oral bolus Day 1
[17] = 104 mg/kg single IV bolus Day 1
[18] = 104 mg/kg single oral bolus Day 1

Structure (SMILES): CCC(=O)OC1CC2OCC2(OC(C)=O)C2C(OC(=O)c3ccccc3)C3(O)CC(OC(=O)C(O)C(NC(=O)OC(C)(C)C)c4ccco4)C(C)=C(C(O)C(=O)C12C)C3(C)C (stereo not shown) [Compound 1393, 3'-Desphenyl-3'-(2-furyl)-7-propionyl taxotere]
- long term survivors at the end of the experiment ([1]; female mice, 1393 104 mg/kg): twenty-eight
- long term survivors at the end of the experiment ([1]; male mice, 1393 73 mg/kg): Twenty-nine
- Survivors [1, 3]: 10
- Survivors [1, 4]: 10
- Survivors [1, 5]: 9
- Survivors [1, 6]: 10
- Survivors [1, 7]: 8
- Survivors [1, 8]: 10
- Survivors [2, 9]: 0
- Survivors [2, 10]: 0
- Survivors [2, 11]: 0
- Survivors [2, 12]: 0
- Survivors [2, 13]: 0
- Survivors [2, 14]: 0
- Survivors ([2]; 42 mg/kg single IV bolus Day 1): 4
- Survivors [2, 15]: 0
- Survivors ([2]; 73 mg/kg single IV bolus Day 1): 6
- Survivors [2, 16]: 2
- Survivors [2, 17]: 6
- Survivors [2, 18]: 5
- 62-day survivors ([2]; SKMES, 1393 single IV bolus 42 mg/kg (Group 5)): four
- 62-day survivors ([2]; SKMES, 1393 single IV bolus 73 mg/kg (Group 4)): six
- 62-day survivors ([2]; SKMES, 1393 single IV bolus 104 mg/kg (Group 3)): six
- 62-day survivors ([2]; SKMES, 1393 single oral bolus 72.8 mg/kg (Group 12)): two
- 62-day survivors ([2]; SKMES, 1393 single oral bolus 104 mg/kg (Group 11)): Five

Structure (SMILES): CCC(=O)O[C@H]1C[C@H]2OC[C@@]2(OC(C)=O)[C@H]2[C@H](OC(=O)c3ccccc3)[C@]3(O)C[C@H](OC(=O)[C@H](O)[C@@H](NC(=O)OC(C)(C)C)c4ccco4)C(C)=C([C@@H](O)C(=O)[C@]12C)C3(C)C [Compound 1393, 3'-Desphenyl-3'-(2-furyl)-7-propionyl taxotere]
- Partial Responses [1, 3]: 3
- Stable Disease [1, 3]: 2
- Toxic Deaths [1, 3]: 0
- Complete Responses [1, 4]: 5
- Partial Responses [1, 4]: 3
- Stable Disease [1, 4]: 2
- Toxic Deaths [1, 4]: 0
- Complete Responses [1, 5]: 4
- Partial Responses [1, 5]: 3
- Stable Disease [1, 5]: 2
- Toxic Deaths [1, 5]: 0
- Complete Responses [1, 6]: 7
- Partial Responses [1, 6]: 1
- Stable Disease [1, 6]: 2
- Toxic Deaths [1, 6]: 0
- Complete Responses [1, 7]: 6
- Partial Responses [1, 7]: 0
- Stable Disease [1, 7]: 2
- Toxic Deaths ([1]; male mice, 73 mg/kg i.v. in 5% ethanol and 95% Liposyn III (Group 5), footnote: one death due to an unknown reason): 2^a
- Complete Responses [1, 8]: 6
- Partial Responses [1, 8]: 3
- Stable Disease [1, 8]: 1
- Toxic Deaths [1, 8]: 0
- Complete Responses [2, 9]: 0
- Partial Responses [2, 9]: 0
- Stable Disease [2, 9]: 0
- Toxic Deaths [2, 9]: 0
- MDS (n) [2, 9]: 10.5 ± 0.9 (6) days
- % Total Response [2, 10]: 0%
- Complete Responses [2, 10]: 0
- Partial Responses [2, 10]: 0
- Stable Disease [2, 10]: 0
- Toxic Deaths [2, 10]: 0
- MDS (n) [2, 10]: 9.2 ± 0.8 (6) days
- Complete Responses [2, 11]: 0
- Partial Responses [2, 11]: 0
- Stable Disease [2, 11]: 0
- Toxic Deaths [2, 11]: 0
- MDS (n) [2, 11]: 16.3 ± 1.3 (6) days
- % Total Response [2, 12]: 0%
- Complete Responses [2, 12]: 0
- Partial Responses [2, 12]: 0
- Stable Disease [2, 12]: 0
- Toxic Deaths [2, 12]: 0
- MDS (n) [2, 12]: 9.1 ± 0.7 (6) days
- % Total Response [2, 13]: 0%
- Complete Responses [2, 13]: 0
- Partial Responses [2, 13]: 0
- Stable Disease [2, 13]: 0
- Toxic Deaths [2, 13]: 0
- MDS (n) [2, 13]: 23.2 ± 1.8 (6) days
- % Total Response [2, 14]: 0%
- Complete Responses [2, 14]: 0
- Partial Responses [2, 14]: 0
- Stable Disease [2, 14]: 0
- Toxic Deaths [2, 14]: 0
- MDS (n) [2, 14]: 9.6 ±0.6 (6) days
- % Total Response ([2]; 42 mg/kg single IV bolus Day 1): 66.7%
- Complete Responses ([2]; 42 mg/kg single IV bolus Day 1): 3
- Partial Responses ([2]; 42 mg/kg single IV bolus Day 1): 1
- Stable Disease ([2]; 42 mg/kg single IV bolus Day 1): 0
- Toxic Deaths ([2]; 42 mg/kg single IV bolus Day 1): 0
- % Total Response [2, 15]: 0%
- Complete Responses [2, 15]: 0
- Partial Responses [2, 15]: 0
- Stable Disease [2, 15]: 0
- Toxic Deaths [2, 15]: 0
- MDS (n) [2, 15]: 14.5 ± 1.1 (6) days
- % Total Response ([2]; 73 mg/kg single IV bolus Day 1): 100%
- Complete Responses ([2]; 73 mg/kg single IV bolus Day 1): 3
- Partial Responses ([2]; 73 mg/kg single IV bolus Day 1): 3
- Stable Disease ([2]; 73 mg/kg single IV bolus Day 1): 0
- Toxic Deaths ([2]; 73 mg/kg single IV bolus Day 1): 0
- % Total Response [2, 16]: 40%
- Complete Responses [2, 16]: 2
- Partial Responses [2, 16]: 0
- Stable Disease [2, 16]: 0
- Toxic Deaths [2, 16]: 1
- MDS (n) [2, 16]: 36.3 ±1.5 (3) days
- % Total Response [2, 17]: 100%
- Complete Responses [2, 17]: 5
- Partial Responses [2, 17]: 1
- Stable Disease [2, 17]: 0
- Toxic Deaths [2, 17]: 0
- % Total Response [2, 18]: 83.3%
- Complete Responses [2, 18]: 4
- Partial Responses [2, 18]: 1
- Stable Disease [2, 18]: 0
- Toxic Deaths [2, 18]: 0
- activity ([2]; SKMES, 1393 orally, lower doses (20.8, 10.4, 5.2 mg/kg)): not active
- MDS ([2]; SKMES, 1393 single IV bolus 10.4 mg/kg (Group 7)): 16.3 days
- MDS ([2]; SKMES, 1393 single IV bolus 20.8 mg/kg (Group 6)): 23.2 days

Structure (SMILES): CCC(=O)O[C@H]1C[C@H]2OC[C@@]2(OC(C)=O)[C@H]2[C@H](OC(=O)c3ccccc3)[C@]3(O)C[C@H](OC(=O)[C@H](O)[C@@H](NC(=O)OC(C)(C)C)c4ccoc4)C(C)=C([C@@H](O)C(=O)[C@]12C)C3(C)C [Compound 1401]
- IC50 (HCT116): < 1 nM
